# According to EP0221541A2, “Quinolonecarboxylic acid derivatives and their preparation” (KYORIN PHARMACEUTICAL CO., LTD., priority 1985, dated 1987):
# Counter-ions that a name gives are not always drawn. Like-named read-outs stand apart in the source and are kept apart here.
# Legend:
# Assay type in all cases: cell-based
# [1] = test system: Clostridium difficile I-E; experiment: MIC, antibacterial spectrum (anaerobic bacteria); conditions: Clostridioides difficile, Gram +, 10^6 cells/ml
# Shigella sonnei IID 969 = experiment: MIC, antibacterial spectrum (aerobic bacteria); conditions: IID969, Shigella sonnei IID 969, Gram -, 10^6 cells/ml
# Protocol: Minimal inhibitory concentrations (MICs) were determined in accordance with the method recommended by Japan Society of Chemotherapy.
# Pst. micros UPI 5464-1 = experiment: MIC, antibacterial spectrum (anaerobic bacteria); conditions: Parvimonas micra, UPI54641, Pst. micros UPI 5464-1, Gram +, 10^6 cells/ml
# C. perfringens KYA 13123 = experiment: microbe, parasite or virus in culture; conditions: Clostridium perfringens, KYA13123
# [2] = test system: Eubacterium lentum GAI 5242; experiment: MIC, antibacterial spectrum (anaerobic bacteria); conditions: Eggerthella lenta, GAI5242; Eubacterium lentum GAI 5242, Gram +, 10^6 cells/ml, anaerobic; read-out: MIC
# F. varium KYA 8501 = experiment: MIC, antibacterial spectrum (anaerobic bacteria); conditions: Fusobacterium varium, KYA8501, F. varium KYA 8501, Gram -, 10^6 cells/ml
# [3] = test system: Acinetobacter anitratus IID 876; experiment: MIC, antibacterial spectrum (aerobic bacteria); conditions: Acinetobacter calcoaceticus, IID876; Acinetobacter anitratus IID 876, Gram -, 10^6 cells/ml, aerobic; read-out: MIC
# [4] = test system: Serratia marcescens IID 618; experiment: MIC, antibacterial spectrum (aerobic bacteria); conditions: IID618
# [5] = test system: Proteus vulgaris IFO 3167; experiment: MIC, antibacterial spectrum (aerobic bacteria); conditions: IFO3167; Proteus vulgaris IFO 3167, Gram -, 10^6 cells/ml, aerobic; read-out: MIC
# S. marcescens GN 7577 = experiment: MIC, antibacterial spectrum (aerobic bacteria); conditions: Serratia marcescens, GN7577; S. marcescens GN 7577, Gram -, 10^6 cells/ml, aerobic; read-out: MIC
# B. fragilis 25285 = experiment: MIC, antibacterial spectrum (anaerobic bacteria); conditions: Bacteroides fragilis; B. fragilis 25285, Gram -, 10^6 cells/ml, anaerobic; read-out: MIC
# S. pyogenes IID 692 = experiment: MIC, antibacterial spectrum (aerobic bacteria); conditions: Streptococcus pyogenes, IID692; S. pyogenes IID 692, Gram +, 10^6 cells/ml, aerobic; read-out: MIC
# [6] = test system: Escherichia coli NIHJ JC-2; experiment: MIC, antibacterial spectrum (aerobic bacteria); conditions: NIHJJC2, Escherichia coli NIHJ JC-2, Gram -, 10^6 cells/ml
# [7] = test system: Yersinia enterocolitica IID 981; experiment: MIC, antibacterial spectrum (aerobic bacteria); conditions: IID981; Yersinia enterocolitica IID 981, Gram -, 10^6 cells/ml, aerobic; read-out: MIC
# E. coli ML 4707 = experiment: MIC, antibacterial spectrum (aerobic bacteria); conditions: Escherichia coli, ML4707; E. coli ML 4707, Gram -, 10^6 cells/ml, aerobic; read-out: MIC
# [8] = test system: Citrobacter freundii IID 976; experiment: MIC, antibacterial spectrum (aerobic bacteria); conditions: IID976; Citrobacter freundii IID 976, Gram -, 10^6 cells/ml, aerobic; read-out: MIC
# [9] = test system: Peptococcus magnus KY 017; experiment: MIC, antibacterial spectrum (anaerobic bacteria); conditions: Finegoldia magna, KY017; Peptococcus magnus KY 017, Gram +, 10^6 cells/ml, anaerobic; read-out: MIC
# S. aureus Smith = experiment: MIC, antibacterial spectrum (aerobic bacteria); conditions: Staphylococcus aureus; S. aureus Smith, Gram +, 10^6 cells/ml, aerobic; read-out: MIC
# [10] = test system: Klebsiella pneumoniae KY(GN)6445; experiment: MIC, antibacterial spectrum (aerobic bacteria); conditions: Klebsiella pneumoniae KY(GN)6445, Gram -, 10^6 cells/ml, aerobic; read-out: MIC
# C. ramosum = experiment: MIC, antibacterial spectrum (anaerobic bacteria); conditions: Thomasclavelia ramosa; C. ramosum, Gram +, 10^6 cells/ml, anaerobic; read-out: MIC
# [11] = test system: Propionibacterium acens 11828; experiment: MIC, antibacterial spectrum (anaerobic bacteria); conditions: Propionibacterium acens 11828, Gram +, 10^6 cells/ml, anaerobic; read-out: MIC
# [12] = test system: Veillonella parvula KYA 10790; experiment: MIC, antibacterial spectrum (anaerobic bacteria); conditions: KYA10790, Veillonella parvula KYA 10790, Gram -, 10^6 cells/ml
# [13] = test system: Morganella morganii IID 602; experiment: MIC, antibacterial spectrum (aerobic bacteria); conditions: IID602, Morganella morganii IID 602, Gram -, 10^6 cells/ml
# [14] = test system: Staphylococcus aureus 209 P; experiment: MIC, antibacterial spectrum (aerobic bacteria); conditions: Staphylococcus aureus 209 P, Gram +, 10^6 cells/ml, aerobic; read-out: MIC
# [15] = test system: B. thetaiotaomicron (0661); experiment: MIC, antibacterial spectrum (anaerobic bacteria); conditions: Bacteroides thetaiotaomicron; B. thetaiotaomicron (0661), Gram -, 10^6 cells/ml, anaerobic; read-out: MIC
# [16] = test system: Bacteroides fragilis GM 7000; experiment: MIC, antibacterial spectrum (anaerobic bacteria); conditions: GM7000; Bacteroides fragilis GM 7000, Gram -, 10^6 cells/ml, anaerobic; read-out: MIC
# [17] = test system: Streptococcus pneumoniae IID 552; experiment: MIC, antibacterial spectrum (aerobic bacteria); conditions: IID552; Streptococcus pneumoniae IID 552, Gram +, 10^6 cells/ml, aerobic; read-out: MIC
# [18] = test system: Alcaligenes faecalis 0114002; experiment: MIC, antibacterial spectrum (aerobic bacteria); conditions: Alcaligenes faecalis 0114002, Gram -, 10^6 cells/ml
# E. coli ATCC 10536 = experiment: MIC, antibacterial spectrum (aerobic bacteria); conditions: Escherichia coli, ATCC10536; E. coli ATCC 10536, Gram -, 10^6 cells/ml, aerobic; read-out: MIC
# [19] = test system: Salmonella enteritidis IID 604; experiment: MIC, antibacterial spectrum (aerobic bacteria); conditions: Salmonella enterica; Salmonella enteritidis IID 604, Gram -, 10^6 cells/ml, aerobic; read-out: MIC
# [20] = Serratia marcescens IID 618, Gram -, 10^6 cells/ml, aerobic, read-out: MIC
Structure (SMILES),MIC [1] [µg/mL],MIC (Shigella sonnei IID 969) [µg/mL],MIC (Pst. micros UPI 5464-1) [µg/mL],MIC (C. perfringens KYA 13123) [µg/mL],MIC [2] [µg/mL],MIC (F. varium KYA 8501) [µg/mL],MIC [3] [µg/mL],MIC [5] [µg/mL],MIC (S. marcescens GN 7577) [µg/mL],MIC (B. fragilis 25285) [µg/mL],MIC (S. pyogenes IID 692) [µg/mL],MIC [6] [µg/mL],MIC [7] [µg/mL],MIC (E. coli ML 4707) [µg/mL],MIC [8] [µg/mL],MIC [9] [µg/mL],MIC (S. aureus Smith) [µg/mL],MIC [10] [µg/mL],MIC (C. ramosum) [µg/mL],MIC [11] [µg/mL],further results
"O=C(O)c1cn(C2CC2)c2c(Cl)c(N3CCC(CNCCO)C3)c(F)cc2c1=O (stereo not drawn) [Exp. 3, 8-Chloro-1-cyclopropyl-6-fluoro-1,4-dihydro-7-(3-(2-hydroxyethylaminomethyl)-1-pyrrolidinyl]-4-oxo-3-quinolinecarboxylic acid]",0.2,0.05,0.1,0.05,0.2,0.39,0.1,0.025,1.56,0.2,0.0125,0.0125,0.1,0.05,0.05,0.05,0.0125,0.05,0.39,0.78,"MIC [4, 20]: 0.2 µg/mL; MIC [12]: 0.1 µg/mL; MIC [13]: 0.39 µg/mL; MIC [14]: 0.0125 µg/mL; MIC [15]: 1.56 µg/mL; MIC [16]: 0.39 µg/mL; MIC [17]: 0.0125 µg/mL; MIC [18]: 0.39 µg/mL; MIC (E. coli ATCC 10536): 0.025 µg/mL; MIC [19]: 0.1 µg/mL"
"O=C(O)c1cn(C2CC2)c2c(F)c(N3CCC(CNCCO)C3)c(F)cc2c1=O (stereo not drawn) [Exp. 1, 1-Cyclopropyl-6,8-difluoro-1,4-dihydro-7-[3-(2-hydroxyethylaminomethyl)-1-pyrrolidinyl]-4-oxo-3-quinolinecarboxylic acid]",0.78,0.05,0.39,0.2,0.78,0.78,0.2,0.05,3.13,1.56,0.05,0.025,0.2,0.05,0.05,≤ 0.05,0.05,0.05,0.78,0.78,"MIC [4, 20]: 0.39 µg/mL; MIC [12]: 0.39 µg/mL; MIC [13]: 0.39 µg/mL; MIC [14]: 0.05 µg/mL; MIC [15]: 3.13 µg/mL; MIC [16]: 1.56 µg/mL; MIC [17]: 0.05 µg/mL; MIC [18]: 0.78 µg/mL; MIC (E. coli ATCC 10536): 0.05 µg/mL; MIC [19]: 0.1 µg/mL"
"O=C(O)c1cn(C2CC2)c2cc(N3CCC(CNCCO)C3)c(F)cc2c1=O (stereo not drawn) [Exp. 2, l-Cyclopropyl-6-fluoro-l,4-dihydro-7-[3-(2-hydroxyethylaminomethyl)-l-pyrrolidinyl]-4-oxo-3-quinolinecarboxylic acid hydrochloride]",25,0.1,3.13,1.56,3.13,25,3.13,0.2,25,50,0.1,0.1,0.78,0.2,0.39,0.2,0.39,0.39,25,3.13,MIC ([4]; Serratia marcescens): 1.56 µg/mL; MIC [12]: 3.13 µg/mL; MIC [13]: 3.13 µg/mL; MIC [14]: 0.2 µg/mL; MIC [15]: > 100 µg/mL; MIC [16]: 100 µg/mL; MIC [17]: 0.1 µg/mL; MIC [18]: 6.25 µg/mL; MIC (E. coli ATCC 10536): 0.1 µg/mL; MIC [19]: 0.39 µg/mL
